{
  "source": "patent US5166213A",
  "about": "“4-pyridyl substituted-1,3-dioxane compounds” (Imperial Chemical Industries PLC, priority 1988, dated 1992)",
  "key": {"[1]": {"assay": "observable signs of toxicity in test (f), rats", "assay_type": "in vivo, rat", "details": "oral dose of 25 mg/kg"}, "[2]": {"test_system": "TXA2 synthase", "assay": "test (f): TXB2 production in blood samples from dosed rats", "assay_type": "in vivo, rat", "details": "oral dose of 25 mg/kg, up to 5 hours", "method": "The samples treated with anti-coagulant are first incubated at 37° C. with collagen (at about 100 micro M), then mixed with the cyclooxygenase inhibitor indomethacin (at about 10^-3 M), centrifuged and the level of the TXA2 metabolite, TXB2, determined by a standard radioimmunoassay technique. By comparison of the amount of TXB2 present in the plasma from animals dosed with test compound with that in the plasma of a control group dosed with placebo, the TXA2 synthase inhibitory properties may be assessed."}, "[3]": {"target": "T1, thromboxane receptor (Homo sapiens, UniProt P21731)", "T1 construct": "aggregating human, citrated, platelet-rich plasma; from tissue; host or cells: human platelets (citrated platelet-rich plasma)", "T1 sequence (P21731 1-343)": "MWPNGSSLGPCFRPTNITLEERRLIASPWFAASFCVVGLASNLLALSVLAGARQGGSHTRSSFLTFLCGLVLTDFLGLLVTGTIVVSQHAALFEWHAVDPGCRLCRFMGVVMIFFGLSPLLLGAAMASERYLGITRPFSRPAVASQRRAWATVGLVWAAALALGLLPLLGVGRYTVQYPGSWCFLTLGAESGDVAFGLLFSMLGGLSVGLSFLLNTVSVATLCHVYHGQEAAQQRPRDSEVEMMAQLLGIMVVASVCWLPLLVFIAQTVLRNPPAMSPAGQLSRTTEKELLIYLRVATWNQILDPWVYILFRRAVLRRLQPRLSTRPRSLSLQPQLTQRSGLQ", "assay": "test (b): blood platelet aggregation, antagonism of U46619 in citrated platelet-rich plasma", "assay_type": "cell-based", "details": "Example 2, unit inferred", "text": "(b) a blood platelet aggregation test based on that described by Born (Nature, 1962, 194, 927-929) and involving:\n(i) aggregating human, citrated, platelet-rich plasma by addition of the TXA2 mimetic agent U46619 so that a dose-response curve is generated;\n(ii) generating a dose-response curve for U46619 stimulated platelet aggregation in the presence of increasing amounts of test compound (generally in the range 10^-5 M to 10^-10 M); and\n(iii) calculating a KB value indicating potency of TXA2 antagonism for the test compound, averaged over several concentrations, from the calculated 50% response value for U46619 aggregation in the presence and absence of test compound; or […]"}, "[4]": {"target": "T2, TXA2 synthase (Homo sapiens, UniProt P24557)", "T2 construct": "using a human platelet microsomal TXA2 synthase preparation; from tissue; host or cells: human platelet microsomes", "T2 sequence (P24557 1-533)": "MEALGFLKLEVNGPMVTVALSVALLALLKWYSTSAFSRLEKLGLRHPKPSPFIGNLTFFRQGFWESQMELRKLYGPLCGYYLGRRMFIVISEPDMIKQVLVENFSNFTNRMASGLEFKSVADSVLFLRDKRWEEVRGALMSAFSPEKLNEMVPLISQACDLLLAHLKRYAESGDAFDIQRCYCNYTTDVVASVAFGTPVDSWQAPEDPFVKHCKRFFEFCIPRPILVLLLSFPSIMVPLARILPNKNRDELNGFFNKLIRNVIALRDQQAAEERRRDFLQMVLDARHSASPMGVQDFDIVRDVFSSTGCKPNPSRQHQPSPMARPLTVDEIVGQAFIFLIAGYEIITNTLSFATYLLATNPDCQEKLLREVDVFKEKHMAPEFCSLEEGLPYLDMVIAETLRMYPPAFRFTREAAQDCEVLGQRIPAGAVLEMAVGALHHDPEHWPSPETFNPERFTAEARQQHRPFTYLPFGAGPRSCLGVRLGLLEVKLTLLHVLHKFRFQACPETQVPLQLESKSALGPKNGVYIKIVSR", "assay": "test (e): in vitro inhibition of human platelet microsomal TXA2 synthase (conversion of [1-^14 C]arachidonic acid to TXB2)", "assay_type": "biochemical"}},
  "data": [
    {"molecule": "O=C(O)CC/C=C\\C[C@@H]1CO[C@H](c2ccccc2Cl)O[C@@H]1c1cccnc1", "note": "(relative stereo) [Example 2, 4(Z)-6-[(2,4,5-cis)-2-(2-chlorophenyl)-4-(3-pyridyl)-1,3-dioxan-5-yl]hexenoic acid]", "values": [
      {"measurement": "observable signs of toxicity", "setting": "[1]", "result": "without any observable signs of toxicity"},
      {"measurement": "inhibition of TXB2 production", "setting": "[2]", "result": "essentially complete inhibition of TXB2 production"},
      {"measurement": "Kb", "setting": "[3]", "result": 650, "unit": "nM"},
      {"measurement": "IC50", "setting": "[4]", "result": 48, "unit": "nM"}
    ]}
  ]
}
